{"source": "patent US12049520B2", "about": "“Bicyclic peptide ligands specific for CD137” (priority 2017, dated 2024)", "key": {"CD137 [1]": {"biological_target": "T1, CD137 (Homo sapiens, UniProt Q07011)", "T1 sequence (Q07011 24-255)": "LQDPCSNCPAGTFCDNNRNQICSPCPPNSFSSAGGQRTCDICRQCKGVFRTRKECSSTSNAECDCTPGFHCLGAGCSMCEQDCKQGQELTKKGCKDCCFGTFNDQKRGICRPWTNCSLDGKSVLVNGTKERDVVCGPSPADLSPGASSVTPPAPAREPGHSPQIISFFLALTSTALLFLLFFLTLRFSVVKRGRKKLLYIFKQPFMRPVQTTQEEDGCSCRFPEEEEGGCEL", "assay": "Fluorescence polarization competition binding assay, tracer BCY640 against CD137L, Urelumab, Utomilumab", "set-up": "purchased AcroBiosystems", "settings": "BCY640 tracer at 1 nM, CD137 500 nM, FIGS. 2 and 3", "experimental": "The binding site of the hCD137-specific Bicycle peptide was determined by competition experiment between a fluorescent labelled CD137 binding peptide and natural ligand CD137L, agonistic antibodies Urelumab and Utomilumab. Urelumab antibody binds to a distinct binding site while CD137L and Utomilumab both bind to the site termed the ligand-binding site.\nThe competitor agonists CD137L (R&D systems), Urelumab and Utomilumab were diluted in assay buffer 20 mM HEPES, 150 mM NaCl, 0.05% P20, pH7.5 to a top concentration of 500-1000 nM. The human CD137 protein (AcroBiosystems) was diluted to 500 nM final concentration in the assay. […] The assay was typically set up by adding 5 μL agonist competitor, 10 μL CD137 protein then 10 μL fluorescent peptide. The total volume of 25 μL was prepared in black walled and bottomed low binding low volume 384 well plates. Measurements were conducted on a BMG PHERAstar FS equipped with an FP 485 520 520 optic module at 25° C. with 200 flashes per well and a positioning delay of 0.1 second. Each well was measured every 5 minutes for 60 minutes. The gain was set in a well containing tracer without target protein. The mP-values at the end of the 60 minutes read were plotted against concentration of the agonists. Reduction in the mP-values indicates competition between the known agonist and the tracer peptide."}, "CD137 [2]": {"biological_target": "T1, CD137", "assay": "CD137 cell activity, Promega CD137 NF-κB luciferase reporter assay in Jurkat cells, antagonism of CD137L", "format": "cell-based", "set-up": "host or cells: Jurkat (CD137 Jurkat reporter cells)", "settings": "co-incubation with trimeric CD137L, FIG. 1", "experimental": "The biological activity of the CD137-specific peptides was tested using the cellular CD137 luciferase reporter assay kit (Promega). The cells in this commercially available kit express luciferase that is activated down-stream of CD137. This assay can be used to assess agonism (exemplified by CD137 ligand, CD137L) and antagonism (exemplified by bicyclic peptide 74-01-04-N002).\nThe Promega CD137 cell-activity assay uses NF-κB luciferase luminescence as a read-out of CD137 activation in Jurkat cells. […] Dilute and then titrate down the bicyclic peptide in a sterile 96 well-plate. […] Prepare enough reagent for duplicate samples and then perform ⅓ dilution series dilution series. Include positive control CD137L and bicyclic peptide alone. […] Add 50 μl cells/well to white cell culture plate. Add 12.5 μl bicyclic peptide (at 6× final concentration) to the cells.\nCo-incubate cells together with CD137L agonist and bicyclic peptide for 6 h at 37° C., 5% CO2. After 6 h thaw Bio-Glo™ and develop the assay at room-temperature. Add 75 μl Bio-Glo™ per well and incubate 5-10 min. Read luminescence signal on Pherastar plate-reader LUM plus models, gain 3600 using MARS software. Analyse data by calculating the percentage inhibition compared to CD137L alone. […]\nThe CD137 reporter activity was determined as NF-κB promotor driven luciferase activity."}, "CD137 [3]": {"biological_target": "T1, CD137", "assay": "CD137 direct binding assay (fluorescence polarisation)", "settings": "D-Alanine scan, reference BCY7151", "experimental": "Affinity of the peptides of the invention for human CD137 (Ki) was determined using a fluorescence polarisation assay, in accordance with the methods disclosed in WO 2016/067035. Peptides of the invention were labelled with a fluorescent tag (fluorescein, FI) and diluted to 2.5 nM in 50 mM HEPES with 100 mM NaCl and 0.05% tween pH 7.5. CD137 protein was titrated starting at 3 μM in the same assay buffer as the peptide to assay 1 nM peptide in a total volume of 25 μL in black walled and bottomed low bind low volume 384 well plates. The assay was typically set up by adding 5 μL assay buffer, 10 μL CD137 protein then 10 μL fluorescent peptide. The concentrations of CD137 protein were 1 in 2 serial dilutions to give 12 different concentrations starting at 3 μM. Measurements were conducted on a BMG PHERAstar FS equipped with an FP 485 520 520 optic module at 25° C. with 200 flashes per well and a positioning delay of 0.1 second. Alternatively, the measurements were performed using Envision (PerkinElmer) equipped with FITC FP Dual Enh mirror, set to 30 flashes. Each well was measured every 5 minutes for 60 minutes. The gain used for analysis was determined for each tracer at the end of the 60 minutes where there was no protein in the well. The mP were fit to a standard 1:1 binding model with a quadratic equation to generate a Kd value."}}, "note": "“Also recorded” adds a separate entry of the source.", "data": [{"substance": "ACIEEGQYCFADPYMCA-Sar6-K [BCY640]", "values": [{"measurement": "binding site on CD137 by competition", "setting": "CD137 [1]", "result": "binds to the physiologically relevant epitope that is shared with both the natural CD137 ligand (CD137L) and CD137 antibody (Utomilumab)"}]}, {"substance": "ACIEEGQYCFADPYMCA [BCY592]", "values": [{"measurement": "effect on CD137L activity in CD137 reporter cells", "setting": "CD137 [2]", "result": "can act as an antagonist that inhibits CD137L activity; also recorded: inhibited CD137L activity"}]}, {"substance": "[PEG3]-ACIEEaQYCFADPY(Nle)CA [BCY7297]", "values": [{"measurement": "affinity relative to the reference peptide", "setting": "CD137 [3]", "result": "improved affinity"}]}]}
